Laboratory results: US11492335B2, “Aryl or heteroaryl triazolone derivatives or salts thereof, or pharmaceutical compositions comprising the same” (YUHAN CORPORATION, priority 2018, dated 2022)
Counter-ions that a name gives are not always drawn. Like-named read-outs stand apart in the source and are kept apart here.

What was measured:
Type in all cases: biochemical
recombinant human VAP-1 = target: T1, recombinant human VAP-1 (Homo sapiens, UniProt Q16853); experiment: Activity on recombinant human VAP-1, Amplex Red HRP-coupled hydrogen peroxide assay, benzylamine substrate; details: recombinant human VAP-1, benzylamine substrate, read-out: Inhibitory Activity (IC50, nM) human VAP-1
T1 construct: purchased R&D systems
T1 sequence (Q16853 1-763): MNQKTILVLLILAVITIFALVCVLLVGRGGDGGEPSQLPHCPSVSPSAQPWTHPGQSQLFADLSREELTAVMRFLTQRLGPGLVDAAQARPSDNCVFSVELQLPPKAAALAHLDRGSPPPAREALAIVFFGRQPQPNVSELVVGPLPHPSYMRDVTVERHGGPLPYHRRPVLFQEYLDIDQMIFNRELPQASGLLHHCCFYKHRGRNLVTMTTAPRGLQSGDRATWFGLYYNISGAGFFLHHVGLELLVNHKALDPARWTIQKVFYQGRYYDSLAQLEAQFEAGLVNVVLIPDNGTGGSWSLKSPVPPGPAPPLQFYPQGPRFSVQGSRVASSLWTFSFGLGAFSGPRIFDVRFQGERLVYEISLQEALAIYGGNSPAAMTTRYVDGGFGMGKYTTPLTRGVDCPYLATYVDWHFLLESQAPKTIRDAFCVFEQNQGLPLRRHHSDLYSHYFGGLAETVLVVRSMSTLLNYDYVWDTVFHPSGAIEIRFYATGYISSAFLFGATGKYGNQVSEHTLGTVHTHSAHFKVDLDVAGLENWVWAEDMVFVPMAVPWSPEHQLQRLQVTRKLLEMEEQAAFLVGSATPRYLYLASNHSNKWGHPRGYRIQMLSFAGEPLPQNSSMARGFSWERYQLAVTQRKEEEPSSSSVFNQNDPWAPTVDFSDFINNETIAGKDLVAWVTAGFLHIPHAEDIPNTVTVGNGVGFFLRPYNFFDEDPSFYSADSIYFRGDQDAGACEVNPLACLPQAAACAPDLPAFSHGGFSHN
Procedure, shortened: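 H2O2 generation from 1 mM benzylamine was coupled via 1 U/mL HRP to 200 uM Amplex Red; inhibitors, serially diluted 1:3 over 8 points with under 1% final DMSO, had been preincubated 30 min at 37 °C. IC50 from percentage drop in rate.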

[1] = target: T2, recombinant human MAO-A (monoamine oxidase-A) (Homo sapiens, UniProt P21397); experiment: Activity on recombinant human MAO-A, Amplex Red method, 0.5 mM tyramine substrate; details: read-out: Inhibitory Activity (IC50, nM) MAO-A
T2 construct: purchased Sigma-Aldrich
T2 sequence (P21397 1-527): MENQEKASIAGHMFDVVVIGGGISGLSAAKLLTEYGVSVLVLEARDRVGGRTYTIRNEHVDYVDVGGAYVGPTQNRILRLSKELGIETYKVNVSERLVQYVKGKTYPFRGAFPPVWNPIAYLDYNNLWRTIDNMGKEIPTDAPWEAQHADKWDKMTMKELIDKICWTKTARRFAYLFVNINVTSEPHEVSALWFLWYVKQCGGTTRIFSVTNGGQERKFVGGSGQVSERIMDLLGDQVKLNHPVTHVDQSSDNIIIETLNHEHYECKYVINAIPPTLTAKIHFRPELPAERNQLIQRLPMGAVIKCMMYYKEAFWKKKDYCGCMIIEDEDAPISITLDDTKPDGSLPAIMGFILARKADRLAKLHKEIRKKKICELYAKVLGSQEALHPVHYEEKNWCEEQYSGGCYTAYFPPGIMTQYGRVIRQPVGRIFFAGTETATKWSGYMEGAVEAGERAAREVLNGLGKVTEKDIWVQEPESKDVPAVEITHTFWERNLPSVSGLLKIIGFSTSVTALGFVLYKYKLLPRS
Procedure, shortened: (§1)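 First, serially diluted compounds were incubated with recombinant enzyme in 50 mM sodium phosphate, pH 7.4, for 30 min at 37° C. Next, Amplex Red (200 uM), HRP (1 U/mL) and tyramine (0.5 mM, MAO-A) or benzylamine (1 mM, MAO-B) were added. Then fluorescence was monitored over 1-2 h and IC50 fitted.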

[2] = target: T3, recombinant human MAO-B (monoamine oxidase-B) (Homo sapiens, UniProt P27338); experiment: Activity on recombinant human MAO-B, Amplex Red method, 1 mM benzylamine substrate; details: read-out: Inhibitory Activity (IC50, nM) MAO-B
T3 construct: purchased Sigma-Aldrich
T3 sequence (P27338 1-520): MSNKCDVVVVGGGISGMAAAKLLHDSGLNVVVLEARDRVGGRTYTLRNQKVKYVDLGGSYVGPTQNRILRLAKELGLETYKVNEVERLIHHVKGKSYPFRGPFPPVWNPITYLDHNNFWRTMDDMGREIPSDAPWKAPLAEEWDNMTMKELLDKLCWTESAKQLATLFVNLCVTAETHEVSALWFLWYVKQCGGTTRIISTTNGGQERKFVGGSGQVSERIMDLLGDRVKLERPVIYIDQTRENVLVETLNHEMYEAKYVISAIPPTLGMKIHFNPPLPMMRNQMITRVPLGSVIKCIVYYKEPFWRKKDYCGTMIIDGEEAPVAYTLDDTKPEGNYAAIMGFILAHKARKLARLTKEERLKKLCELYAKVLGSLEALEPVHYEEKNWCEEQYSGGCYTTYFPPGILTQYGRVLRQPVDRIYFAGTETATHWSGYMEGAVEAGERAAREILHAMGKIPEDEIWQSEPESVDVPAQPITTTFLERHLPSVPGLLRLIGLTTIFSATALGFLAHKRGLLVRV
Procedure, shortened: as §1

[3] = target: T4, recombinant human DAO (diamine oxidase) (Homo sapiens, UniProt P19801); experiment: Activity on recombinant human DAO, Amplex Red method, 1 mM putrescine substrate; details: recombinant human DAO, read-out: Inhibitory Activity (IC50, nM) DAO
T4 construct: purchased R&D systems
T4 sequence (P19801 20-751): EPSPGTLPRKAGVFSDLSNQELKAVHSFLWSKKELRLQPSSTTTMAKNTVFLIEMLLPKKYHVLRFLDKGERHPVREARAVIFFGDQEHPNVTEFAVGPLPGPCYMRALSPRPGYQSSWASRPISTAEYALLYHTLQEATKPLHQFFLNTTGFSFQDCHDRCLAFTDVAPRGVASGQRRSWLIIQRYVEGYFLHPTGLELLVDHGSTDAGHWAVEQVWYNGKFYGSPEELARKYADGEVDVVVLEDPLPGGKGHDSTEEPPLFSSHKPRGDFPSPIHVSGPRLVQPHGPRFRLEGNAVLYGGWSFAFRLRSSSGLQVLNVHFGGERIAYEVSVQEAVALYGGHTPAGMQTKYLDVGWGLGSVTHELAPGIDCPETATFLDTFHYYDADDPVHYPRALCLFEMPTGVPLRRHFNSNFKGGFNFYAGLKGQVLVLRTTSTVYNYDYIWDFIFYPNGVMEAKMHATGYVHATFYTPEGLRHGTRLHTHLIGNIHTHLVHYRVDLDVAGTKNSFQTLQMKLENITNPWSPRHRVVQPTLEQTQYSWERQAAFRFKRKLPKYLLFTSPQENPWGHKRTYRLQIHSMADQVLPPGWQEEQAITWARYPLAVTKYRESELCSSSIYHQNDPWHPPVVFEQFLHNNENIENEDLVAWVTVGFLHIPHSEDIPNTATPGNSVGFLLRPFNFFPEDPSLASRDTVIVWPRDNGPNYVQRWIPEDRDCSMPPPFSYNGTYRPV
Procedure, shortened: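 Inhibition of recombinant human DAO (diamine oxidase, R&D systems) was assessed with the Amplex Red Hydrogen Peroxide Assay Kit. Hydrogen peroxide produced from 1 mM putrescine was detected through an HRP-coupled reaction that converts Amplex Red into fluorescent resorufin, read at 544 nm excitation and 590 nm emission. IC50 values came from four-parameter logistic fits in GraphPad Prism.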

[4] = 1 mM putrescine, * = between 10 and 100 nM, ** = between 300 and 1000 nM

| SMILES | IC50 (recombinant human VAP-1; 30 min preincubation at 37° C.) [nM] | IC50 ([1]; 0.5 mM tyramine) [nM] | IC50 ([2]; 1 mM benzylamine) [nM] | IC50 [3, 4] [nM] | IC50 (recombinant human VAP-1) [nM] | IC50 ([1]; 0.5 mM tyramine substrate) [nM] | IC50 ([2]; 1 mM benzylamine substrate) [nM] | IC50 ([3]; 1 mM putrescine substrate) [nM] |
| --- | --- | --- | --- | --- | --- | --- | --- | --- |
| Cc1cc(-c2ccc(C(F)(F)F)nc2)cnc1-n1cnn(C/C(=C/F)CN)c1=O [Example 148, 2-[(2E)-2-(aminomethyl)-3-fluoroprop-2-en-1-yl]-4-[5-methyl-6′-(trifluoromethyl)-3,3′-bipyridin-6-yl]-2,4-dihydro-3H-1,2,4-triazol-3-one hydrochloride] | 0.4 | 160000 | > 10000 | 35 |  |  |  |  |
| Cc1cc(-c2ccc(N3CCOCC3)nc2)cnc1-n1cnn(C/C(=C/F)CN)c1=O [Example 149, 2-[(2E)-2-(aminomethyl)-3-fluoroprop-2-en-1-yl]-4-[5-methyl-6′-(morpholin-4-yl)-3,3′-bipyridin-6-yl]-2,4-dihydro-3H-1,2,4-triazol-3-one hydrochloride] | 0.5 | > 100000 | > 10000 | 490 |  |  |  |  |
| Cc1cc(-c2ccc3c(c2)OCO3)cnc1-n1cnn(C/C(=C/F)CN)c1=O [Example 150, 2-[(2E)-2-(aminomethyl)-3-fluoroprop-2-en-1-yl]-4-[5-(2H-1,3-benzodioxol-5-yl)-3-methylpyridin-2-yl]-2,4-dihydro-3H-1,2,4-triazol-3-one hydrochloride] | 0.35 | 4800 | 170 | 480 |  |  |  |  |
| Cc1cc(-c2ccc3c(c2)NC(=O)C3)cnc1-n1cnn(C/C(=C/F)CN)c1=O [Example 151, 6-(6-{1-[(2E)-2-(aminomethyl)-3-fluoroprop-2-en-1-yl]-5-oxo-1,5-dihydro-4H-1,2,4-triazol-4-yl}-5-methylpyridin-3-yl)-1,3-dihydro-2H-indol-2-one] |  |  |  |  | 0.52 | > 10000 | > 10000 | 98 |
| Cc1cc(-c2ccc3nonc3c2)cnc1-n1cnn(C/C(=C/F)CN)c1=O [Example 152, 2-[(2E)-2-(aminomethyl)-3-fluoroprop-2-en-1-yl]-4-[5-(2,1,3-benzooxadiazol-5-yl)-3-methylpyridin-2-yl]-2,4-dihydro-3H-1,2,4-triazol-3-one hydrochloride] |  |  |  |  | 0.5 | 7420 | 314 | 1300 |

Now from value to compound:

| IC50 (recombinant human VAP-1; 30 min preincubation at 37° C.) [nM] | IC50 ([1]; 0.5 mM tyramine) [nM] | IC50 ([2]; 1 mM benzylamine) [nM] | IC50 [3, 4] [nM] | IC50 (recombinant human VAP-1) [nM] | IC50 ([1]; 0.5 mM tyramine substrate) [nM] | IC50 ([2]; 1 mM benzylamine substrate) [nM] | IC50 ([3]; 1 mM putrescine substrate) [nM] | SMILES |
| --- | --- | --- | --- | --- | --- | --- | --- | --- |
|  |  |  |  | 0.39 | 96000 | 703 | 640 | Cc1cc(-c2ccc3cn[nH]c3c2)cnc1-n1cnn(C/C(=C/F)CN)c1=O [Example 153, 2-[(2E)-2-(aminomethyl)-3-fluoroprop-2-en-1-yl]-4-[5-(1H-indazol-6-yl)-3-methylpyridin-2-yl]-2,4-dihydro-3H-1,2,4-triazol-3-one] |
|  |  |  |  | 0.3 | > 100000 | 3000 | 190 | Cc1cc(-c2cc(C)c3c(c2)CCC(=O)N3)cnc1-n1cnn(C/C(=C/F)CN)c1=O [Example 154, 6-(6-{1-[(2E)-2-(aminomethyl)-3-fluoroprop-2-en-1-yl]-5-oxo-1,5-dihydro-4H-1,2,4-triazol-4-yl}-5-methylpyridin-3-yl)-8-methyl-3,4-dihydroquinolin-2(1H)-one hydrochloride] |
|  |  |  |  | 0.3 | 16000 | 4400 | 87 | Cc1cc(-c2ccc3c(c2)NC(=O)CO3)cnc1-n1cnn(C/C(=C/F)CN)c1=O [Example 155, 6-(6-{1-[(2E)-2-(aminomethyl)-3-fluoroprop-2-en-1-yl]-5-oxo-1,5-dihydro-4H-1,2,4-triazol-4-yl}-5-methylpyridin-3-yl)-2H-1,4-benzoxazin-3 (4H)-one hydrochloride] |
|  |  |  |  | 0.3 | > 100000 | 26000 | 38 | Cc1cc(-c2ccc3c(c2)NC(=O)OC3)cnc1-n1cnn(C/C(=C/F)CN)c1=O [Example 156, 7-(6-{1-[(2E)-2-(aminomethyl)-3-fluoroprop-2-en-1-yl]-5-oxo-1,5-dihydro-4H-1,2,4-triazol-4-yl}-5-methylpyridin-3-yl)-1,4-dihydro-2H-3,1-benzoxazin-2-one hydrochloride] |
|  |  |  |  | 0.3 | > 100000 | 3790 | < 100 | Cc1cc(-n2cnn(C/C(=C/F)CN)c2=O)ncc1-c1ccc(-c2nc[nH]n2)cc1 [Example 157, 2-[(2E)-2-(aminomethyl)-3-fluoroprop-2-en-1-yl]-4-{4-methyl-5-[4-(1H-1,2,4-triazol-3-yl)phenyl]pyridin-2-yl}-2,4-dihydro-3H-1,2,4-triazol-3-one] |
|  |  |  |  | 0.18 | 9600 | 1940 | < 100 | Cc1cc(-n2cnn(C/C(=C/F)CN)c2=O)ncc1-c1cccc(-c2nc[nH]n2)c1 [Example 158, 2-[(2E)-2-(aminomethyl)-3-fluoroprop-2-en-1-yl]-4-{4-methyl-5-[3-(1H-1,2,4-triazol-3-yl)phenyl]pyridin-2-yl}-2,4-dihydro-3H-1,2,4-triazol-3-one] |
